The conditions of data set [1]: 298.15 K; 101.33 kPa; Liquid; Vibrating tube method.
Data set [2] can be described thus: refractive index (Na D-line) (dimensionless). As to conditions: 298.15 K; 101.33 kPa; Liquid; Standard Abbe refractometry.

Numbers after ± are expanded uncertainties.

Experimental findings from the NIST ThermoML archive (doi:10.1016/j.jct.2010.11.013) are described below.

Consider `CCOS(=O)(=O)[O-].CCn1cc[n+](C)c1` [1-ethyl-3-methylimidazolium ethyl sulfate], for which the mass density (usually the mass of a sample divided by its volume) in data set [1] turned out to be 1237.23 ± 0.43 kg/m3. For the same compound, the refractive index (as a rule, the speed of light in vacuum divided by its phase velocity in the sample) in data set [2] is given as 1.4791 ± 0.0007.
For `CCCCCCC` [heptane] the same measures were 679.56 ± 0.19 kg/m3 and 1.38515 ± 0.00068.
Regarding `CCCCCC` [hexane], the mass density in data set [1] is reported as 655.19 ± 0.26 kg/m3. Also, the refractive index in data set [2] was determined as 1.37234 ± 0.0007.
For `CCCCCCCCC` [nonane] the same measures were 713.99 ± 0.25 kg/m3 and 1.40326 ± 0.0007.
As for `CCCCCCCC` [octane], the mass density in data set [1] came out at 698.6 ± 0.18 kg/m3. In data set [2], the refractive index is given as 1.39519 ± 0.00068.
For `Cc1ccccc1` [toluene], in that order: 862.17 ± 0.11 kg/m3 and 1.49399 ± 0.00068.
